This note sets out measurements from PubChem BioAssay (NCI).

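Five concentrations, 48 hours, 96-well plates. TGI denotes the concentration required for complete inhibition of growth.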

Common to all, as to assay: NCI tumour cell line growth inhibition, 48 h
For experiment [1], the system named is SN12C renal.
Experiment [2] concerns PC-3 prostate.
For experiment [3], the system named is CAKI-1 renal.
In experiment [4] the test system is SR leukemia.
Experiment [5] relates to NCI-H226 lung.
Experiment [6] has as its system SF-539 CNS.
Experiment [7] has as its system DLD-1 colon.
The test system of experiment [8] is LXFL 529 NSCLC.
Experiment [9] concerns DMS 114 small cell lung.
The subject of experiment [10] is HOP-18 NSCLC.
Experiment [11] concerns XF 498 CNS.
The test system of experiment [12] is KM20L2 colon.
Experiment [13] has as its system DMS 273 small cell lung.
The test system of experiment [14] is M19-MEL melanoma.
Experiment [15] deals with SNB-78 CNS.
In experiment [16] the test system is RXF-631 renal.

Consider `c1ccc2c(c1)n1c(N3CCOCC3)[n+]3ccccc3c1c1c3cccc[n+]3c(N3CCOCC3)n21`, for which the TGI in experiment [1], in [2], in experiment [3], in experiment [4], in [5] and in [6] was more than 100 µM each time.

On to `CC1=CC[C@@]2(C)[C@@H]([C@@H]1C)[C@H]1CC[C@@H]3[C@@]4(C)CC[C@H](O)C(C)(C)[C@@H]4CC[C@@]3(C)[C@]1(C)C[C@@H]2O`, for which the TGI in experiment [1] is more than 100 µM; in experiment [2], 40.6 µM; in experiment [3], more than 83.2 µM; in experiment [4] it was 7.34 µM; in experiment [5] it was more than 100 µM; in experiment [6] it was more than 55.7 µM.

With `CC1=C/C(=N\N(C)C)C(C(O)(C(F)(F)F)C(F)(F)F)C(C)(C)C1` (configuration not stated), the TGI in experiment [1], in experiment [2], in [3], in [4], in [5] and in [6] was more than 100 µM each time.

For the compound `COc1ccccc1NC(=S)Nc1cccc(C)n1`, the TGI in experiment [1], in experiment [2], in [3], in experiment [4], in [5] and in experiment [6] was more than 100 µM in each case.

For `O=C(/C=C(\O)C(=O)O)/C=C(\O)c1ccccc1Cl`, the TGI in experiment [1], in [7], in experiment [8], in experiment [9], in [3] and in experiment [4] was more than 100 µM in each case. Besides, the TGI in experiment [5], in experiment [10], in experiment [6], in [11], in [12] and in [13] was more than 100 µM in each case.

On to `CC1N(O)C(c2ccccc2)C(c2ccccc2)=[N+]1[O-]` (configuration not stated), for which the TGI in [1], in experiment [2], in experiment [3], in [4], in [5] and in [6] was more than 100 µM throughout.

Consider `Cc1nn(-c2ccccc2)c2nc3c(c(C)nn3-c3ccccc3)c(-c3ccccc3Br)c12`, for which the TGI in experiment [1], in experiment [2], in experiment [3], in experiment [4], in [5] and in [6] was more than 100 µM in each case.

On to `COc1ccc2c(c1)-c1c(c3ccccc3n1CCN1CCCCC1)CC2`, for which the TGI in experiment [1] was more than 83.9 µM; in experiment [2] it was more than 87.7 µM; in experiment [3], more than 75.2 µM; in experiment [4] it was 30.9 µM; in experiment [5], 37.5 µM; in experiment [6] it was 39.3 µM.

As for `CC(C)[Si](OCC/C=C/C1CCC(=O)C1C(O)C1CCCCC1)(C(C)C)C(C)C` (configuration not stated), the TGI in experiment [1] was determined as 34.4 µM; in experiment [2], 31.5 µM; in experiment [3], 28.5 µM; in experiment [4], 14.8 µM; in experiment [5] it was 30 µM; in [6], 40.6 µM.

For `COC(=O)C(Cc1ccccc1)C(=O)NC(CNC(=O)OCc1ccccc1)C(=O)OCc1ccccc1` (configuration not stated), the TGI in experiment [1] is more than 100 µM; in [2], more than 100 µM; in experiment [3], more than 87.2 µM; in experiment [4], more than 69.2 µM; in [5], more than 80.2 µM; in experiment [6], more than 100 µM.

As to `CN(C)c1cccc(-c2cc(=O)c3cc4c(cc3[nH]2)OCO4)c1`, the TGI in experiment [1] was more than 100 µM; in experiment [7], more than 100 µM; in [8], more than 48.4 µM; in experiment [3] it was more than 100 µM; in [14], more than 100 µM; in experiment [4], more than 100 µM. Further, the TGI was 1.32 µM in [5]; more than 100 µM in [15]; 0.756 µM in experiment [6]; 7.24 µM in [11]; 0.515 µM in experiment [12]; more than 100 µM in [16].

In the case of `CNC(=O)C(C)NC(=O)C(Cc1ccccc1)NC(=O)OC(C)(C)C` (configuration not stated), the TGI in [1], in experiment [2], in experiment [3], in experiment [4], in experiment [5] and in [6] was more than 100 µM in each case.

Take `COc1ccc2c(c1)CC1NC2Cc2ccccc21` (configuration not stated): the TGI in experiment [7], in experiment [8], in [9], in [3], in experiment [14] and in [15] was more than 100 µM throughout. Also, the TGI in experiment [10], in [6], in experiment [11] and in experiment [12] was more than 100 µM in each case.

Regarding `CCCOc1ccc(/C=C/C2=[N+](CCO)CCO2)cc1`, the TGI in experiment [1], in experiment [2], in experiment [3], in [4], in experiment [5] and in experiment [6] was more than 100 µM in each case.

In the case of `CCOC(=O)C1=C(C)C2C3C(=O)NC(=O)C3C1(C)C1C(=O)NC(=O)C21` (configuration not stated), the TGI in experiment [1], in experiment [7], in [8], in experiment [9], in experiment [14] and in experiment [5] was more than 100 µM throughout. Besides, the TGI in experiment [15], in experiment [10], in experiment [6], in experiment [12] and in [13] was more than 100 µM in each case.

On to `COc1c(C(=O)O)cccc1-c1cccc(C(=O)NCCN(CCNC(=O)c2cccc(-c3cccc(C(=O)O)c3OC)c2OC)CCNC(=O)c2cccc(-c3cccc(C(=O)O)c3OC)c2OC)c1OC`, for which the TGI in [1] was 89.9 µM; in [2], more than 100 µM; in experiment [3], more than 100 µM; in [4] it was 44.1 µM; in experiment [5], more than 100 µM; in [6], more than 100 µM.
